Molecules are shown by their SMILES. Calls of active or inactive are those of the source. The rule behind the calls is not given here.

The subject of this experiment is Rattus norvegicus. The experiment is described as follows: Antidiabetic activity in fasted Sprague-Dawley rat assessed as increase in urinary glucose excretion at 30 mg/kg, po administered 0.5 hrs before glucose challenge measured after 24 hrs by UV spectrophotometric analysis relative to control. It counts as functional, organism-based. The arrangement: dose 30 mg/kg. Particulars: Urine.
Turning to `OC[C@H]1O[C@@H](Cc2cn(Cc3ccccc3)nn2)[C@H](O)[C@@H](O)[C@@H]1O`, the outcome was Active.

Turning to `OC[C@H]1O[C@@H](Cc2cn(Cc3nc4ccccc4s3)nn2)[C@H](O)[C@@H](O)[C@@H]1O`, the result was Active.

Take `CCOc1ccc(Cc2cc([C@@H]3O[C@H](CO)[C@@H](O)[C@H](O)[C@H]3O)ccc2Cl)cc1`: the outcome was Active.

As to `OC[C@H]1O[C@@H](Cc2cn(Cc3ccccc3Cl)nn2)[C@H](O)[C@@H](O)[C@@H]1O`, the result was Active.

For `OC[C@H]1O[C@@H](Cc2cn(Cc3cc4ccc(Cl)cc4s3)nn2)[C@H](O)[C@@H](O)[C@@H]1O`, the result was Active.

As for `OC[C@H]1O[C@@H](Cc2cn(Cc3ccc(-c4ccc(F)cc4)s3)nn2)[C@H](O)[C@@H](O)[C@@H]1O`, the outcome was Active.

Turning to `Cc1ccc(Cn2cc(C[C@@H]3O[C@H](CO)[C@@H](O)[C@H](O)[C@H]3O)nn2)cc1`, the outcome was Active.

For `O=[N+]([O-])c1ccc(Cn2cc(C[C@@H]3O[C@H](CO)[C@@H](O)[C@H](O)[C@H]3O)nn2)cc1`, the outcome was Active.

(Values after ChEMBL document CHEMBL1932970, “Facile synthesis of 1,2,3-triazole analogs of SGLT2 inhibitors by 'click chemistry'” (Bioorg Med Chem Lett, 2012).)
